Patent US20130072383A1, “METHOD FOR ANTI-SPROUTING AND POSSIBLY FUNGICIDAL TREATMENT OF BULBS AND/OR TUBERS USING CLOVE OIL AND MINT OIL” (priority 2010, published 2013)

System: Bintje, Nicola and Charlotte potatoes
Test: Sprout-inhibiting treatment of stored potatoes over 6 months, sprout weights (Example 1)
Assay type: in vivo
Settings: used alone
Procedure: The sprout-inhibiting treatments were carried out over a 6-month period.
The mint oil used contained about 70% L-carvone and the clove oil used contained about 90% eugenol.
The tested potatoes were Bintje, Nicola and Charlotte varieties.
An anti-sprouting composition A consisting of a mixture of clove oil (supplied by Charabot (Grasse)/ mint oil (supplied by Charabot (Grasse) at 2:1 v/v was prepared. The densities of mint and clove are respectively 0.94 and 1.04. This composition was applied to the potatoes using Electrofog Xeda 3000 equipment at an output temperature of 210° C., • at an initial dose of 90 grams of composition per tonne of potatoes, • at subsequent doses of 30 grams of composition per tonne of potatoes every three weeks.
For comparison, some potatoes were treated: • B: either with mint oil alone
at an initial dose of 90 grams of mint oil per tonne of potatoes,
at subsequent doses of 30 grams of mint oil per tonne of potatoes every three weeks; • C: or with clove oil alone
at an initial dose of 90 grams of clove oil per tonne of potatoes,
at subsequent doses of 30 grams of clove oil per tonne of potatoes every three weeks; • D: or with CIPC (Xedamate Aerosol 88 containing 20% CIPC) by thermal fogging:
at an initial dose of 60 grams of Xedamate Aerosol 88 per tonne of potatoes, […]

## L-carvone
  Anti-sprouting activity relative to reference product CIPC: comparable with the reference product (CIPC)
